Measured values from patent US10653687B2, “Methods and pharmaceutical compostions for treating rhabdomyolysis” (INSERM (INSTITUT NATIONAL DE LA SANTE ET DE LA RECHERCHE …, priority 2015, dated 2020).
Entries after “also recorded” stand apart in the source; their conditions may differ.

How the values were obtained:
TLR9 = molecular target: T1, TLR9 (Homo sapiens, UniProt Q9NR96); assay: IL-6 secretion of myoblasts stimulated with CpG-A (TLR9 ligand) after pre-treatment with TLR9 antagonists; format: cell-based; details: myoblasts pre-treated with the substance, then stimulated with CpG-A
T1 construct: endogenous in cells; host or cells: primary human CD56+ myoblasts from muscle biopsies
T1 sequence (Q9NR96 26-1032): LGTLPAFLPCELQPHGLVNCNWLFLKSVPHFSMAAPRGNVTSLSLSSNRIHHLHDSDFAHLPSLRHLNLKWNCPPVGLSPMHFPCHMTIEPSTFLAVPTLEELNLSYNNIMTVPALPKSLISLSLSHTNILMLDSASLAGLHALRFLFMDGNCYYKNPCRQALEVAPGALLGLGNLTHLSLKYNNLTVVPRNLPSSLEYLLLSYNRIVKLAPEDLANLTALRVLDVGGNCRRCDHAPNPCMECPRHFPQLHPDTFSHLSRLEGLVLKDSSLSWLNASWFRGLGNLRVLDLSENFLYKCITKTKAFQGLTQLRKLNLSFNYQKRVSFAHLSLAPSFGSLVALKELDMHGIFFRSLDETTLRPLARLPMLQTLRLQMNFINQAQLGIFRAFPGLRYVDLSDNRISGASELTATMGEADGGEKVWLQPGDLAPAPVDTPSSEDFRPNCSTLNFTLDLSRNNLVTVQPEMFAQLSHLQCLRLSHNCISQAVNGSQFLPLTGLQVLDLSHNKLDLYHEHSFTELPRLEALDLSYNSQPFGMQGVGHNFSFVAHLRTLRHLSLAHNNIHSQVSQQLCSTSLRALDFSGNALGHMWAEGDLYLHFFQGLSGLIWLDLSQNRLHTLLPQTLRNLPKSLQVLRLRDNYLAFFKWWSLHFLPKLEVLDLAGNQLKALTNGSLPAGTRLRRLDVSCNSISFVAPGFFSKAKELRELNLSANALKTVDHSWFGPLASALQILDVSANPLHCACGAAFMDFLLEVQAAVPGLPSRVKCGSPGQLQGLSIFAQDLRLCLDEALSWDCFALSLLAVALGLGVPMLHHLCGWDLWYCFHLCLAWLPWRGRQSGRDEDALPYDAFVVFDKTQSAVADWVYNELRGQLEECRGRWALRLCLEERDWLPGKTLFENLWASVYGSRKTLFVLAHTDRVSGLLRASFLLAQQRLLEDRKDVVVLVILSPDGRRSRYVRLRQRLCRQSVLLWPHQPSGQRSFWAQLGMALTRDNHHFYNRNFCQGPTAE
Protocol: Human primary myoblasts were isolated and grown as described. CD56+ myoblasts were isolated by flow cytometry cell sorting using an anti CD56-APC conjugated antibody (e. Biosciences) and routinely maintained in F10 medium supplemented with 20% Fetal Bovine Serum (FBS).
After 12 hours of TLR stimulation of DC at 37° C. in humidified air containing 5% CO2, the concentrations of human IL-8, IL-6, tumor necrosis factor (TNF)-α, IL-1β, IL-10, IL-4, Monocyte Chemoattractant Protein-1 (MCP-1), RANTES (Regulated on Activation, Normal T cell Expressed and Secreted), and Macrophage Inflammatory Protein (MIP)-1-α and β in the culture supernatants were measured with a human cytokine Cytometric Bead Assay (CBA) kit (BD Biosciences, San Jose, Calif.) in accordance with the manufacturer's instructions. In brief, 50 μL of supernatant was mixed with 50 μL of mixed capture beads, and a standard curve was generated. After 3 hours of incubation at room temperature, the samples were washed and suspended in Phosphate-Buffered Saline (PBS) and then analyzed by flow cytometry (ARIA II; BD Biosciences) with CBA Analysis Software (FCAP Array version 3.0; Soft Flow, St Louis Park, Minn.). The results are expressed in picograms per milliliter. […]

myoblasts = assay: Intracellular calcium mobilization in myoblasts (Fluo-4 Assay); format: cell-based, human; details: for intracellular calcium mobilization in patient myoblasts stimulated with CpG-A: pre-treatment, concentration not given; for intracellular calcium on stimulation with the substance: control and patient myoblasts, live imaging
Protocol: Intracellular calcium mobilization was measured in myoblasts using the Fluo-4 Assay from Invitrogen according to the manufacturer's directions and as defined previously. Cells were loaded with 1 μm Fluo-4 for 30 min at 37° C. in 5% CO2/95% O2, as described previously […]. The plates were then transferred to a temperature-controlled stage (Harvard Apparatus, Holliston, Mass., USA) on an Olympus IX-70 inverted microscope. Cultures were visualized using a 40×0.7 numerical aperture fluorite water-immersion objective (TC-SP8 Leica).
To evaluate the link between muscle damage and inflammation, we explored TLR ligand involvement in the control of intracellular Ca2+ dynamics, as its intracellular increase is the hallmark of rhabdomyolysis. The levels of intracellular Ca2+ recorded using live imaging of resting cells were equivalent among control and patient cells. […] This effect observed with patient cells was specific for TLR9 ligands since no response was observed following exposure to LPS or Imiquimod in both patient and control cells. Pre-treatment with 10 μM of chloroquine or ODN-i abolished intracellular calcium mobilization in patient cells in presence of CpG-A completely. […] To obtain additional evidence for the role of inflammation in muscle damage, we measured ATP production in myoblasts following stimulation with CpG-A; we found an impairment of ATP production following stimulation with inflammatory stimuli in patient cells compared to control. To confirm the deleterious effect of TLR9 ligands in patient myoblasts, we incubated myoblasts with increasing doses of CpG-A and measured cellular mortality at different time point as accessed by the viability assay. Myoblasts from patients were exclusively sensitive to TLR9 ligands.

[1] = Treatment of lipin-1 patients with hydroxychloroquine: muscle pain and serum cytokines; format: in vivo, human; details: two patients, 6 mg/Kg/day, at three months of treatment
Protocol: Two patients were treated with hydroxychloroquine (Plaquenil®, 6 mg/Kg/day).

SMILES: COc1cc(NC(C)CCCN)c2ncccc2c1 (stereo not shown) [primaquine]
- secretion of IL-6 after stimulation by CpG-A (TLR9): attenuate or abolish; also recorded: abolish
- intracellular calcium mobilization in patient myoblasts stimulated with CpG-A (myoblasts): abolish

SMILES: CCN(CCO)CCCC(C)Nc1ccnc2cc(Cl)ccc12 (stereo not shown) [hydroxychloroquine]
- muscle pain [1]: decrease
- pro-inflammatory cytokines (IL-8, RANTES, MCP-1) in sera [1]: dramatic decrease

SMILES: CCN(CC)CCCC(C)Nc1ccnc2cc(Cl)ccc12 (stereo not shown) [chloroquine]
- secretion of IL-6 after stimulation by CpG-A (TLR9): attenuate or abolish; also recorded: abolish
- intracellular calcium mobilization in presence of CpG-A (myoblasts; patient cells (myoblasts), pre-treatment with 10 μM): abolished
- intracellular calcium mobilization in patient myoblasts stimulated with CpG-A (myoblasts): abolish

SMILES: CC(C)Cn1cnc2c(N)nc3ccccc3c21 [Imiquimod, imiquimod]
- intracellular calcium on stimulation with the substance (myoblasts): no response

SMILES: O=C1CN(/N=C/c2ccc(-c3ccc([N+](=O)[O-])cc3)o2)C(O)=N1 [dantrium]
- elevation of intracellular calcium (myoblasts; patient myoblasts, chelation of intracellular calcium): inhibited

SMILES: C[C@H](CCC(=O)O)C[C@H](C)C[C@H](C)C(=O)/C=C(\O)[C@H](C)C[C@H](C)C/C=C/[C@@H](C)[C@@H](O)[C@@H](C)[C@@H](O)C[C@@H]1CC[C@@](C)([C@H]2CC[C@@](C)([C@@H](C)O)O2)O1 [ionomycin]
- intracellular calcium on stimulation with the substance (myoblasts): induced a rapid calcium flux
